This passage reports IC50 results from patent publication US12281057B2 (VERTEX PHARMACEUTICALS INCORPORATED, priority 2017, dated 2025).

Each structure is given as a SMILES string.

truncated form of human NaV 1.8 with full channel activity, sequence (Q9Y5Y9 126-1722 limits assumed): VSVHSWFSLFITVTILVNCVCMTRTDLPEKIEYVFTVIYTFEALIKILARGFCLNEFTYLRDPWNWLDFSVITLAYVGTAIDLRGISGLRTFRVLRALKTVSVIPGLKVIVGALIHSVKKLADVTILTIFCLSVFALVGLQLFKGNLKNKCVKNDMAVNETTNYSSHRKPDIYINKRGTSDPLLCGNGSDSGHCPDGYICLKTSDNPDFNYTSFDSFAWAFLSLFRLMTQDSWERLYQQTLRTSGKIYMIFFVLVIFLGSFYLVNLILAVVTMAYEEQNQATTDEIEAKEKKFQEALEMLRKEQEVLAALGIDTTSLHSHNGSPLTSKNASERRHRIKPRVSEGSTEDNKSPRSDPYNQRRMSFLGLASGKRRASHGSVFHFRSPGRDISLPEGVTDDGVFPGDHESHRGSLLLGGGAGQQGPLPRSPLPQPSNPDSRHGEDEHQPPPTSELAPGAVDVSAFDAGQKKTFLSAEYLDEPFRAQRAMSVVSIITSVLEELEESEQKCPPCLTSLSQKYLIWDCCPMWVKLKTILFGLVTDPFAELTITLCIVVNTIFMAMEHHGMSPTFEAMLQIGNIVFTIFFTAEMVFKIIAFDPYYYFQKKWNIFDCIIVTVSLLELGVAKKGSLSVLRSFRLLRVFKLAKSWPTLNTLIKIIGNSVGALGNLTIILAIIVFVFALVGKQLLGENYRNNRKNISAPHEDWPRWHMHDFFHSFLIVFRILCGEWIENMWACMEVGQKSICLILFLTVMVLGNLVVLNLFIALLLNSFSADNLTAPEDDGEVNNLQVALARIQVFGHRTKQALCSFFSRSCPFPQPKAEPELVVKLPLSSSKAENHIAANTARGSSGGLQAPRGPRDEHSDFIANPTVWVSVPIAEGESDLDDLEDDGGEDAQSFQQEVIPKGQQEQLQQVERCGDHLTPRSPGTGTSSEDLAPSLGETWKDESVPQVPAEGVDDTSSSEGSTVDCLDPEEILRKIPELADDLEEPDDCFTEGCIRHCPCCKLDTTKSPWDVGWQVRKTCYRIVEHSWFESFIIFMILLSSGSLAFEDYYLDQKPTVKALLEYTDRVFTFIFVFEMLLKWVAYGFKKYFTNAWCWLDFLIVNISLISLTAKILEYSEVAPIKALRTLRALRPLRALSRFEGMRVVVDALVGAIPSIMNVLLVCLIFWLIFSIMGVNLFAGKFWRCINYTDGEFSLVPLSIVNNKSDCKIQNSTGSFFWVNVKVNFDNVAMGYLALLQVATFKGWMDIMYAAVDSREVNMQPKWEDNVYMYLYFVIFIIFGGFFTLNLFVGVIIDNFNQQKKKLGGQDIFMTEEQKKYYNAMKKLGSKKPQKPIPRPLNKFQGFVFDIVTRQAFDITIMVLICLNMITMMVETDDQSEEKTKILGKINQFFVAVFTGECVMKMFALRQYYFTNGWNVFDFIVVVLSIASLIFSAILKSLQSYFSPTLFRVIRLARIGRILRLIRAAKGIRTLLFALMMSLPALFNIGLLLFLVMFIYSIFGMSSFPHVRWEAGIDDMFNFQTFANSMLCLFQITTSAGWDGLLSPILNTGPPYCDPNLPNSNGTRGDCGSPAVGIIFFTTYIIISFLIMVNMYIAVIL

The test has as its target truncated form of human NaV 1.8 with full channel activity (Homo sapiens, UniProt Q9Y5Y9). As to the kind of experiment: E-VIPR Assay Method A for detecting and measuring Nav inhibition (HEK cells, membrane potential FRET dyes, electrical stimulation). The class given is cell-based. The settings on record: HEK cells expressing human NaV 1.8, HS (human serum) in compound loading buffer, 11 point dose response, top dose 3 μM, Table 20A, read-out: Nav 1.8 MedChem Optical Assay EVIPR Assay Method A HS IC50. The gist of the method:
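Read-out: FRET membrane-potential dye ratio (460/580 nm) before and during E-VIPR field stimulation at 10 Hz for 10 s, expressed as % activity between DMSO and positive controls. Cells: HEK with truncated human NaV1.8; compound preincubated 30 min at room temp, final DMSO 0.625%.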
Turning to `[2H]C([2H])([2H])Oc1cc(OC(F)(F)F)ccc1Oc1ccc(OC(F)(F)F)c(F)c1C(=O)Nc1ccc(C(N)=O)nc1` [Compound 167, 5-[[2-fluoro-6-[2-(trideuteriomethoxy)-4-(trifluoromethoxy)phenoxy]-3-(trifluoromethoxy)benzoyl]amino]pyridine-2-carboxamide], the IC50 amounted to 0.045 µM.

With `[2H]C([2H])([2H])Oc1cc(OC(F)(F)F)ccc1Oc1ccc(C(F)(F)F)c(F)c1C(=O)Nc1cccc(C(N)=O)n1` [Compound 168, 6-[[2-Fluoro-6-[2-(trideuteriomethoxy)-4-(trifluoromethoxy)phenoxy]-3-(trifluoromethyl)benzoyl]amino]pyridine-2-carboxamide], the IC50 stood at 0.14 µM.

For the compound `COc1cc(OC(F)(F)F)ccc1Oc1ccc(C(F)(F)F)c(F)c1C(=O)Nc1cccc(C(N)=O)n1` [Compound 169, 6-[[2-Fluoro-6-[2-methoxy-4-(trifluoromethoxy)phenoxy]-3-(trifluoromethyl)benzoyl]amino]pyridine-2-carboxamide], the IC50 was found to be 0.113 µM.

Consider `COc1cc(OC(F)(F)F)ccc1Oc1cc(Cl)cc(F)c1C(=O)Nc1ccnc(C(N)=O)c1` [Compound 170, 4-[[4-Chloro-2-fluoro-6-[2-methoxy-4-(trifluoromethoxy)phenoxy]benzoyl]amino]pyridine-2-carboxamide], for which the IC50 came to 0.014 µM.

`COc1cc(OC(F)(F)F)ccc1Oc1ccc(F)c(Cl)c1C(=O)Nc1ccnc(C(N)=O)c1` [Compound 171, 4-[[2-Chloro-3-fluoro-6-[2-methoxy-4-(trifluoromethoxy)phenoxy]benzoyl]amino]pyridine-2-carboxamide]: the concentration for half-maximal inhibition (IC50) came to 0.035 µM.

As to `[2H]C([2H])([2H])Oc1cc(OC(F)(F)F)ccc1Oc1cc(OC(F)(F)F)cc(F)c1C(=O)Nc1ccnc(C(N)=O)c1` [Compound 172, 4-[[2-Fluoro-6-[2-(trideuteriomethoxy)-4-(trifluoromethoxy)phenoxy]-4-(trifluoromethoxy)benzoyl]amino]pyridine-2-carboxamide], the IC50 was 0.012 µM.

Take `[2H]C([2H])([2H])Oc1cc(OC(F)(F)F)ccc1Oc1cc(OC(F)(F)F)cc(F)c1C(=O)Nc1ccc(C(N)=O)nc1` [Compound 173, 5-[[2-Fluoro-6-[2-(trideuteriomethoxy)-4-(trifluoromethoxy)phenoxy]-4-(trifluoromethoxy)benzoyl]amino]pyridine-2-carboxamide]: the IC50 came to 0.052 µM.

Consider `[2H]C([2H])([2H])Oc1cc(OC(F)(F)F)ccc1Oc1cc(OC(F)F)cc(F)c1C(=O)Nc1ccc(C(N)=O)nc1` [Compound 174, 5-[[4-(Difluoromethoxy)-2-fluoro-6-[2-(trideuteriomethoxy)-4-(trifluoromethoxy)phenoxy]benzoyl]amino]pyridine-2-carboxamide], for which the IC50 was 0.088 µM.

Consider `[2H]C([2H])([2H])Oc1cc(OC(F)(F)F)ccc1Oc1cc(C(F)(F)F)cc(C(F)(F)F)c1C(=O)Nc1ccnc(C(N)=O)c1` [Compound 175, 4-[[2-[2-(Trideuteriomethoxy)-4-(trifluoromethoxy)phenoxy]-4,6-bis(trifluoromethyl)benzoyl]amino]pyridine-2-carboxamide], for which the IC50 was 0.038 µM.

For `[2H]C([2H])([2H])Oc1cc(OC(F)(F)F)ccc1Oc1cc(C(F)(F)F)cc(C(F)(F)F)c1C(=O)Nc1ccc(C(N)=O)nc1` [Compound 176, 5-[[2-[2-(Trideuteriomethoxy)-4-(trifluoromethoxy)phenoxy]-4,6-bis(trifluoromethyl)benzoyl]amino]pyridine-2-carboxamide], the IC50 was found to be 0.19 µM.

In the case of `NC(=O)c1cc(NC(=O)c2c(Cl)cc(Cl)cc2Oc2ccc(F)cc2)ccn1` [Compound 177, 4-[[2,4-Dichloro-6-(4-fluorophenoxy)benzoyl]amino]pyridine-2-carboxamide], the half-maximal inhibitory concentration (IC50) was 0.46 µM.

On to `COc1cc(F)ccc1Oc1cc(Cl)cc(Cl)c1C(=O)Nc1ccnc(C(N)=O)c1` [Compound 178, 4-[[2,4-Dichloro-6-(4-fluoro-2-methoxy-phenoxy)benzoyl]amino]pyridine-2-carboxamide], for which the half-inhibitory concentration (IC50) was determined as 0.076 µM.

As to `[2H]C([2H])([2H])Oc1cc(OC(F)(F)F)ccc1Oc1cc(Cl)cc(Cl)c1C(=O)Nc1ccnc(C(N)=O)c1` [Compound 179, 4-[[2,4-Dichloro-6-[2-(trideuteriomethoxy)-4-(trifluoromethoxy)phenoxy]benzoyl]amino]pyridine-2-carboxamide], the IC50 turned out to be 0.01 µM.

As to `NC(=O)c1cc(NC(=O)c2c(Cl)cc(Cl)cc2Oc2ccc(OC(F)(F)F)cc2)ccn1` [Compound 180, 4-[[2,4-Dichloro-6-[4-(trifluoromethoxy)phenoxy]benzoyl]amino]pyridine-2-carboxamide], the IC50 came to 0.075 µM.

For `NC(=O)c1ccc(NC(=O)c2c(Cl)cc(Cl)cc2Oc2ccc(F)cc2)cn1` [Compound 181, 5-[[2,4-Dichloro-6-(4-fluorophenoxy)benzoyl]amino]pyridine-2-carboxamide], the half-inhibitory concentration (IC50) turned out to be 2.1 µM.

On to `COc1cc(F)ccc1Oc1cc(Cl)cc(Cl)c1C(=O)Nc1ccc(C(N)=O)nc1` [Compound 182, 5-[[2,4-Dichloro-6-(4-fluoro-2-methoxy-phenoxy)benzoyl]amino]pyridine-2-carboxamide], for which the IC50 amounted to 0.41 µM.

On to `[2H]C([2H])([2H])Oc1cc(OC(F)(F)F)ccc1Oc1cc(Cl)cc(Cl)c1C(=O)Nc1ccc(C(N)=O)nc1` [Compound 183, 5-[[2,4-Dichloro-6-[2-(trideuteriomethoxy)-4-(trifluoromethoxy)phenoxy]benzoyl]amino]pyridine-2-carboxamide], for which the IC50 came to 0.099 µM.

As to `NC(=O)c1ccc(NC(=O)c2c(Cl)cc(Cl)cc2Oc2ccc(OC(F)(F)F)cc2)cn1` [Compound 184, 5-[[2,4-Dichloro-6-[4-(trifluoromethoxy)phenoxy]benzoyl]amino]pyridine-2-carboxamide], the half-maximal inhibitory concentration (IC50) is 0.5 µM.

Take `COc1cc(OC(F)(F)F)ccc1Oc1cc(Cl)cc(F)c1C(=O)Nc1ccc(C(N)=O)nc1` [Compound 185, 5-[[4-Chloro-2-fluoro-6-[2-methoxy-4-(trifluoromethoxy)phenoxy]benzoyl]amino]pyridine-2-carboxamide]: the IC50 worked out at 0.066 µM.

For the compound `COc1cc(OC(F)(F)F)ccc1Oc1ccc(F)c(Cl)c1C(=O)Nc1ccc(C(N)=O)nc1` [Compound 186, 5-[[2-Chloro-3-fluoro-6-[2-methoxy-4-(trifluoromethoxy)phenoxy]benzoyl]amino]pyridine-2-carboxamide], the IC50 came to 0.19 µM.

On to `COc1cc(OC(F)(F)F)ccc1Oc1cc(C(F)(F)F)cc(F)c1C(=O)Nc1ccc(C(N)=O)nc1` [Compound 187, 5-[[2-Fluoro-6-[2-methoxy-4-(trifluoromethoxy)phenoxy]-4-(trifluoromethyl)benzoyl]amino]pyridine-2-carboxamide], for which the IC50 came out at 0.053 µM.

In the case of `[2H]C([2H])([2H])Oc1cc(OC(F)(F)F)ccc1Oc1ccc(C(F)(F)F)c(F)c1C(=O)Nc1ccc(C(N)=O)nc1C` [Compound 188, 5-[[2-Fluoro-6-[2-(trideuteriomethoxy)-4-(trifluoromethoxy)phenoxy]-3-(trifluoromethyl)benzoyl]amino]-6-methyl-pyridine-2-carboxamide], the IC50 turned out to be 0.16 µM.

For `COc1cc(OC(F)(F)F)ccc1Oc1ccc(Cl)c(F)c1C(=O)Nc1cc(C(N)=O)ncc1C` [Compound 189, 4-[[3-Chloro-2-fluoro-6-[2-methoxy-4-(trifluoromethoxy)phenoxy]benzoyl]amino]-5-methyl-pyridine-2-carboxamide], the IC50 turned out to be 0.006 µM.

Take `NC(=O)c1cc(NC(=O)c2c(Oc3ccc(OC(F)(F)F)cc3)ccc3c2CCC3(F)F)ccc1F` [Compound 190, N-(3-Carbamoyl-4-fluoro-phenyl)-1,1-difluoro-5-[4-(trifluoromethoxy)phenoxy]indane-4-carboxamide]: the half-inhibitory concentration (IC50) was 0.032 µM.

For the compound `NC(=O)c1cc(NC(=O)c2c(Oc3ccc(OC(F)(F)F)cc3)ccc3c2CCC3(F)F)ccn1` [Compound 191, 4-[[1,1-Difluoro-5-[4-(trifluoromethoxy)phenoxy]indane-4-carbonyl]amino]pyridine-2-carboxamide], the half-inhibitory concentration (IC50) turned out to be 0.12 µM.

`NC(=O)c1ccc(NC(=O)c2c(Oc3ccc(OC(F)(F)F)cc3)ccc3c2CCC3(F)F)cn1` [Compound 192, 5-[[1,1-Difluoro-5-[4-(trifluoromethoxy)phenoxy]indane-4-carbonyl]amino]pyridine-2-carboxamide]: the IC50 came out at 0.42 µM.

With `COc1cc(OC(F)(F)F)ccc1Oc1ccc(C(F)(F)F)c(F)c1C(=O)Nc1ccc(C(N)=O)nc1` [Compound 193, 5-[[2-fluoro-6-[2-methoxy-4-(trifluoromethoxy)phenoxy]-3-(trifluoromethyl)benzoyl]amino]pyridine-2-carboxamide], the 50% inhibitory concentration (IC50) is 0.016 µM.

On to `COc1cc(OC(F)(F)F)ccc1Oc1cnc(C(F)(F)F)c(F)c1C(=O)Nc1ccc(C(N)=O)nc1` [Compound 194, N-(6-carbamoyl-3-pyridyl)-3-fluoro-5-[2-methoxy-4-(trifluoromethoxy)phenoxy]-2-(trifluoromethyl)pyridine-4-carboxamide], for which the half-maximal inhibitory concentration (IC50) was 0.021 µM.

On to `COc1ccc(Oc2ccc(C(F)(F)F)c(F)c2C(=O)Nc2ccnc(C(N)=O)c2)c(OC)c1` [Compound 195, 4-[[6-(2,4-Dimethoxyphenoxy)-2-fluoro-3-(trifluoromethyl)benzoyl]amino]pyridine-2-carboxamide], for which the IC50 was 0.011 µM.

Regarding `COc1ccc(Oc2ccc(C(F)(F)F)c(F)c2C(=O)Nc2ccnc(C(N)=O)c2)c(OC(F)(F)F)c1` [Compound 196, 4-[[2-Fluoro-6-[4-methoxy-2-(trifluoromethoxy)phenoxy]-3-(trifluoromethyl)benzoyl]amino]pyridine-2-carboxamide], the IC50 was 0.044 µM.

The term IC50 denotes the midpoint of a concentration-inhibition curve.
